Read-outs that look alike come from different tables or passages of the source.
Tests used:
RBL-2H3 cells = test: cells; format: cell-based, rat; settings: for IC50: Rattus norvegicus
Summary of the method: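 RBL-2H3 rat basophils sensitized 12-16 h with anti-DNP IgE (0.5 μg/ml), pretreated 90 min at 37° C with compound (DMF 0.25% vehicle), then stimulated 45 min with DNP-BSA (50 ng ml^−1) or ionomycin (1.5 μM). Degranulation read as β-hexosaminidase release.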

Syk protein = target: T1, Syk protein (UniProt P48025); test: In vitro affinity for Syk by fluorescence spectroscopy (spectrofluorometry); format: binding; settings: read-out: Kd: dissociation constant with respect to Syk
T1 construct: none given for this test; fused on or other part: probably GST at the N-terminus (GST:Syk 6-242), if the ADA protein was also used here
Protocol: The dissociation constant of the molecules according to the invention with respect to Syk protein may particularly be measured in vitro by means of fluorescence spectroscopy (or spectrofluorometry).
Finally, the in vitro affinity of the molecule C-13 and some of the 87 molecules mentioned above for Syk protein was measured by means of fluorescence spectroscopy (or spectrofluorometry) and is expressed by the dissociation constant (or Kd) in μmole/liter (μM).

LAT = test: Phosphorylation of LAT (phospho-specific antibodies); format: cell-based, rat; settings: dose-dependent, RBL-2H3 cells
[1] = RBL-2H3 cells, read-out: Degran. IC50: concentration inhibiting mast cell degranulation by 50%
[2] = RBL-2H3 cells, 0 to 40 μM, read-out: concentration inhibiting mast cell degranulation by 50% in vitro

Structure (SMILES)	IC50 (RBL-2H3 cells; [1]) [mg/L]	Kd (Syk protein) [µM]	IC50 (RBL-2H3 cells; [2]) [µM]	ionomycin-induced degranulation (RBL-2H3 cells)	IC50 (RBL-2H3 cells; RBL-2H3, read-out: Degran. IC50: concentration inhibiting mast cell degranulation by 50%) [mg/L]	phosphorylation of LAT (LAT)
C=CCn1c(CNC(=O)c2cccc(C)c2)cnc1SCC(=O)Nc1cccc(C(=O)OC(C)C)c1 [Molecule 75]	~5	4.8	–	–	–	–
COc1ccc(S(=O)(=O)N(CCc2ccccc2)CC(=O)Nc2ccc(C(N)=O)cc2)cc1 [Molecule 18]	> 10	0.8	–	–	–	–
COc1ccc(C)cc1NC(=O)c1ccc(CN2CCC(Cc3ccccc3)CC2)cc1 [Molecule 17, 4-[(4-benzyl-1-piperidinyl)methyl}-N-(2-methoxy-5-methylphenyl)benzamide]	> 10	17.9	–	–	–	–
CCOc1ccc(NC(=O)CC2C(=O)N(c3ccc(OC)cc3)C(=S)N2CCN2CCOCC2)cc1 (centres unmarked) [Molecule 84, N-(4-ethoxyphenyl)-2-{1-(4-methoxyphenyl)-3-[2-(4-morpholinyl)ethyl]-5-oxo-2-thioxo-4-imidazolidinyl}acetamide]	~7	15.6	–	–	–	–
CCOC(=O)c1ccc(NC(=O)CSc2nnc(-c3ccco3)c(-c3ccco3)n2)cc1 [Molecule 54, ethyl 4-({[(5,6-di-2-furyl-1,2,4-triazin-3-yl)thio]acetyl}amino)benzoate]	~5	1.6	–	–	–	–
COc1cc(-c2nnc(SCC(=O)Nc3ccc(Cl)cc3)n2CCc2ccccc2)cc(OC)c1OC [Molecule 59]	~2	8.2	~5	–	–	–
COc1cccc(C2C(C(=O)c3ccc(C)cc3)=C(O)C(=O)N2CCCN2CCOCC2)c1 (centres unmarked) [Molecule 4, 3-hydroxy-5-(3-methoxyphenyl)-4-(4-methylbenzoyl)-1-[3-(4-morpholinyl)propyl]-1,5-dihydro-2H-pyrrol-2-one]	> 10	9.4	–	–	–	–
CCOC(=O)c1sc(N2C(=O)C(O)=C(C(=O)c3ccc(F)cc3)C2c2ccc(C)cc2)nc1C (centres unmarked) [Molecule 10, ethyl 2-[3-(4-fluorobenzoyl)-4-hydroxy-2-(4-methylphenyl)-5-oxo-2,5-dihydro-1H-pyrrol-1-yl]-4-methyl-1,3-thiazole-5-carboxylate]	~10	6.3	–	–	–	–
CCOC(=O)c1ccc(N2C(=O)C(O)=C(C(=O)c3ccccc3)C2c2ccc(ON)cc2OC)cc1 (centres unmarked) [Molecule 6]	> 10	6.1	–	–	–	–
CCn1c(CCC(=O)c2ccc(Cl)cc2)nnc1SCC(=O)Nc1ccc(Br)c(C)c1C [Molecule 82]	~7	3.2	–	–	–	–
O=C(NCc1nnc(NCc2nc3ccccc3c(=O)[nH]2)n1-c1ccccc1)c1ccccc1F [Molecule 29]	~10	6.7	–	–	–	–
C=CCn1c(SCC(=O)Nc2cccc(OC)c2)nnc1C(C)NC(=O)c1ccccc1 (centres unmarked) [Molecule 66, N-{1-[4-allyl-5-({2-[(3-methoxyphenyl)amino]-2-oxoethyl}thio)-4H-1,2,4-triazol-3-yl]ethyl} benzamide]	~5	8	–	–	–	–
COc1ccc(C2C(C(=O)c3cccs3)=C(O)C(=O)N2CCCn2ccnc2)c(OC)c1 (centres unmarked) [Molecule 2]	> 10	16.3	–	–	–	–
CCOC(=O)C1=C(C)NC2=C(C(=O)c3ccccc32)C1c1cc(Br)ccc1OCC(=O)O (centres unmarked) [Molecule 3, {4-bromo-2-[3-(ethoxy carbonyl)-2-methyl-5-oxo-4,5-dihydro-1H-indeno[1,2-b]pyridin-4-yl]phenoxy} acetic acid]	> 10	6.2	–	–	–	–
Cc1cc(C(=O)Nc2ccccc2C(=O)O)ccc1NC(=O)COc1ccc(C(C)C)cc1 [Molecule 49, 2-[(4-{[(4-isopropylphenoxy)acetyl]amino}-3-methylbenzoyl)amino] benzoic acid]	~10	5.5	–	–	–	–
CCOC(=O)c1ccc(NC(=O)CC2C(=O)N(c3ccc(Cl)cc3)C(=S)N2Cc2cccnc2)cc1 (centres unmarked) [Molecule 61]	~2	21.8	~5	–	–	–
COc1ccccc1C(=O)Nc1ccc(-c2nnc(SCC(=O)c3ccccc3)n2C)cc1 [Molecule 15, 2-methoxy-N-(4-(4-methyl-5-[(2-oxo-2-phenylethyl)thio]-4H-1,2,4-triazol-3-yl)phenyl)benzamide]	~2.5	5.6	–	–	–	–
O=C(C1=C(O)C(=O)N(Cc2cccnc2)C1c1cccc(Oc2ccccc2)c1)c1ccc(Cl)cc1 (centres unmarked) [Molecule 1, 4-(4-chlorobenzoyl)-3-hydroxy-5-(3-phenoxyphenyl)-1-(3-pyridinylmethyl)-1,5-dihydro-2H-pyrrol-2-one]	> 10	5	–	–	–	–
O=C(Nc1ccccc1)c1ccc(NCCN2CCOCC2)c(S(=O)(=O)N2CCOCC2)c1 [Molecule 46, 4-{[2-(4-morpholinyl)ethyl]amino}-3-(4-morpholinylsulphonyl)-N-phenylbenzamide]	> 10	3	–	–	–	–
COC(=O)c1ccccc1-c1ccc(/C=C2/SC(=S)N(Cc3ccccc3)C2=O)o1 [Molecule C-13, methyl 2-{5-[(3-benzyl-4-oxo-2-thioxo-1,3-thiazolidin-5-ylidene)methyl]-2-furyl}benzoate]	–	4.8 ± 0.2	–	not detectably affected	1	increases

Reference: patent publication US9504676B2, “Molecules inhibiting a metabolic pathway involving the Syk protein tyrosine kinase and method for identifying said molecules” (CENTRE NATIONAL DE LA RECHERCHE SCIENTIFIQUE, priority 2008, dated 2016)
